# From ChEMBL document CHEMBL1201862, “PubChem BioAssay data set” (2004)
# Active and inactive are the calls of the source.
# Legend:
# [1] = molecular target: T1, Heat shock factor protein 1 (Mus musculus, UniProt P38532); assay: inhibition of MG132-induced HSE-luciferase signal, confirmation, cell-based, NIH3T3, luminescence, dose retest (AID 2382); type: functional;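 further: NIH3T3 fibroblasts with HSF1-driven luciferase reporter stressed by proteasome inhibitor MG132; luminescence from HSF1-driven luciferase expression after 8 hours of MG132 stress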
# T1 sequence (P38532 whole entry): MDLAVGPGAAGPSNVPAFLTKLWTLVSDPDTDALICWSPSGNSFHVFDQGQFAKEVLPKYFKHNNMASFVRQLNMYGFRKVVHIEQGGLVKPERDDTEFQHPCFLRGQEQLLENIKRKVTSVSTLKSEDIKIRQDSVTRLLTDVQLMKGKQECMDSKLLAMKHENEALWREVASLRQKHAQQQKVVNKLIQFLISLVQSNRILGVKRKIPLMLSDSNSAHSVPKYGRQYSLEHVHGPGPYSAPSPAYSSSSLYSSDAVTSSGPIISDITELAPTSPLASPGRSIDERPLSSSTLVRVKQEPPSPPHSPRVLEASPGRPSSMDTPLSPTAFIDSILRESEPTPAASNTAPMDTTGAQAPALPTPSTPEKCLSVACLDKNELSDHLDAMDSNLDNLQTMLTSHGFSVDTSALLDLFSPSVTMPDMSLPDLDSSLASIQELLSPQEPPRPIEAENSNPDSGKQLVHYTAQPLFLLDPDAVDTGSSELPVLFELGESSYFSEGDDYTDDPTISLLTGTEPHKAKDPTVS
# [2] = molecular target: T2, E3 ubiquitin-protein ligase XIAP (Homo sapiens, UniProt P98170); assay: Counter Screen using XIAP-Bir3 for Chemical Antagonists of Bir1/2 domains of IAP-family anti-apoptotic proteins. [Related pubchem assays (depositor defined):AID1018, AID1449, AID1514, AID1638, AID1749, AID1750, AID488957, AID488963]
# T2 sequence (P98170 whole entry): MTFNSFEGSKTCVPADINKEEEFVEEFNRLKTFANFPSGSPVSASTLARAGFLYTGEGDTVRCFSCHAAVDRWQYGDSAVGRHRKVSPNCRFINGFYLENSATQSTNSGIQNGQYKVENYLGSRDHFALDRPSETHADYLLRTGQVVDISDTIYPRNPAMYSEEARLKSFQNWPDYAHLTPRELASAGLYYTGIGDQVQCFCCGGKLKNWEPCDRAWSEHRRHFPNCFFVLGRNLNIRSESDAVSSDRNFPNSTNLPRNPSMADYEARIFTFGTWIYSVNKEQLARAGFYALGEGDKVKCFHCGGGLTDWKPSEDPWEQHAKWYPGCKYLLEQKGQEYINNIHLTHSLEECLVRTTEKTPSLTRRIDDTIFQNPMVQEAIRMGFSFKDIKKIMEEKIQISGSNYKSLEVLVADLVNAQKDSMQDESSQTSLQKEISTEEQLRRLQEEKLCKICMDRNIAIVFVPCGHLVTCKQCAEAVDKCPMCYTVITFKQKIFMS
# [3] = molecular target: T2, E3 ubiquitin-protein ligase XIAP; assay: XIAP antagonists, biochemical, IAP family, fluorescence polarization (AID 1018); type: functional
# [4] = THP-1 cell cytotoxicity, dose response, cytotoxicity control for non-replicating M. tuberculosis project (AID 489025); type: functional
# cells = type: functional
# [5] = Vero E6 cell cytotoxicity, dose response, cytotoxicity control for non-replicating M. tuberculosis project, secondary assay (AID 492998); type: functional, VeroE6; settings: Vero C1008
# Mucolipin-3 = molecular target: T3, Mucolipin-3 (Homo sapiens, UniProt Q8TDD5); assay: Fluorescence counterscreen assay for […] agonists: dose response cell-based high-throughput screening assay to identify agonists of the transient receptor potential channel ML3 (TRPML3). [Related pubchem assays: 1424, 1448 ]; type: functional
# T3 sequence (Q8TDD5 whole entry): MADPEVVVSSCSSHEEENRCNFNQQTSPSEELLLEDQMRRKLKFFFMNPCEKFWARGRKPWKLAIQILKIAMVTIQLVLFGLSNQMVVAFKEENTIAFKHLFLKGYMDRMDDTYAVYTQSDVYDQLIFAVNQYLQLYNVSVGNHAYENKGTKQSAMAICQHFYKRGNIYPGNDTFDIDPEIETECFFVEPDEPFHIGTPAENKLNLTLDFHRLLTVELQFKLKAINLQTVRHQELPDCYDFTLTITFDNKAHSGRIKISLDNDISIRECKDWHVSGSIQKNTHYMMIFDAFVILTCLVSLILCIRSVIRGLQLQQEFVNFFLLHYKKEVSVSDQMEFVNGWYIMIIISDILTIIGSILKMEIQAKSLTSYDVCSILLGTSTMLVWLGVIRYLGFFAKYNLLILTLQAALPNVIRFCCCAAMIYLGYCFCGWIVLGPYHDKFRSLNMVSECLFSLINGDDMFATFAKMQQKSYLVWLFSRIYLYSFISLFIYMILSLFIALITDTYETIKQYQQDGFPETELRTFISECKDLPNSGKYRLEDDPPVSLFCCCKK
# [6] = molecular target: T4, Zinc finger protein mex-5 (Caenorhabditis elegans, UniProt Q9XUB2); assay: MEX-5/TCR-2 RNA interaction inhibitors, dose response, biochemical, C. elegans, fluorescence polarization (AID 1960)
# T4 sequence (Q9XUB2 whole entry): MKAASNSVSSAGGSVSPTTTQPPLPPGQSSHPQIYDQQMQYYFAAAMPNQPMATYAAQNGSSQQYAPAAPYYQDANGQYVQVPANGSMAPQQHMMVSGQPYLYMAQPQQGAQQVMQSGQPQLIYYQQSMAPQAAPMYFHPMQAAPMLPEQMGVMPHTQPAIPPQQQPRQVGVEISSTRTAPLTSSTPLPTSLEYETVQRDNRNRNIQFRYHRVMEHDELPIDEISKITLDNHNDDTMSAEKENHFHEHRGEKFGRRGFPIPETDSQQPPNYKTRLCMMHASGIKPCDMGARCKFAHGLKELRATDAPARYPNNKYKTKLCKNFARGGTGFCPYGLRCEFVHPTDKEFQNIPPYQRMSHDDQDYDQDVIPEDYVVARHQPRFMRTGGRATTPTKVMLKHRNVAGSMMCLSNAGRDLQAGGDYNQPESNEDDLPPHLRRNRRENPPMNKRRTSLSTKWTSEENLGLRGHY
# Ion channel NompC = Ion channel NompC (Danio rerio, UniProt Q7T1G6); assay: Dose response cell-based high-throughput screening assay for agonists of the transient receptor potential channel N1 (TRPN1). [Related pubchem assays (depositor defined):AID1424, AID1448]; type: functional
# Sequence of Ion channel NompC (Q7T1G6 whole entry, the tested form may be a part): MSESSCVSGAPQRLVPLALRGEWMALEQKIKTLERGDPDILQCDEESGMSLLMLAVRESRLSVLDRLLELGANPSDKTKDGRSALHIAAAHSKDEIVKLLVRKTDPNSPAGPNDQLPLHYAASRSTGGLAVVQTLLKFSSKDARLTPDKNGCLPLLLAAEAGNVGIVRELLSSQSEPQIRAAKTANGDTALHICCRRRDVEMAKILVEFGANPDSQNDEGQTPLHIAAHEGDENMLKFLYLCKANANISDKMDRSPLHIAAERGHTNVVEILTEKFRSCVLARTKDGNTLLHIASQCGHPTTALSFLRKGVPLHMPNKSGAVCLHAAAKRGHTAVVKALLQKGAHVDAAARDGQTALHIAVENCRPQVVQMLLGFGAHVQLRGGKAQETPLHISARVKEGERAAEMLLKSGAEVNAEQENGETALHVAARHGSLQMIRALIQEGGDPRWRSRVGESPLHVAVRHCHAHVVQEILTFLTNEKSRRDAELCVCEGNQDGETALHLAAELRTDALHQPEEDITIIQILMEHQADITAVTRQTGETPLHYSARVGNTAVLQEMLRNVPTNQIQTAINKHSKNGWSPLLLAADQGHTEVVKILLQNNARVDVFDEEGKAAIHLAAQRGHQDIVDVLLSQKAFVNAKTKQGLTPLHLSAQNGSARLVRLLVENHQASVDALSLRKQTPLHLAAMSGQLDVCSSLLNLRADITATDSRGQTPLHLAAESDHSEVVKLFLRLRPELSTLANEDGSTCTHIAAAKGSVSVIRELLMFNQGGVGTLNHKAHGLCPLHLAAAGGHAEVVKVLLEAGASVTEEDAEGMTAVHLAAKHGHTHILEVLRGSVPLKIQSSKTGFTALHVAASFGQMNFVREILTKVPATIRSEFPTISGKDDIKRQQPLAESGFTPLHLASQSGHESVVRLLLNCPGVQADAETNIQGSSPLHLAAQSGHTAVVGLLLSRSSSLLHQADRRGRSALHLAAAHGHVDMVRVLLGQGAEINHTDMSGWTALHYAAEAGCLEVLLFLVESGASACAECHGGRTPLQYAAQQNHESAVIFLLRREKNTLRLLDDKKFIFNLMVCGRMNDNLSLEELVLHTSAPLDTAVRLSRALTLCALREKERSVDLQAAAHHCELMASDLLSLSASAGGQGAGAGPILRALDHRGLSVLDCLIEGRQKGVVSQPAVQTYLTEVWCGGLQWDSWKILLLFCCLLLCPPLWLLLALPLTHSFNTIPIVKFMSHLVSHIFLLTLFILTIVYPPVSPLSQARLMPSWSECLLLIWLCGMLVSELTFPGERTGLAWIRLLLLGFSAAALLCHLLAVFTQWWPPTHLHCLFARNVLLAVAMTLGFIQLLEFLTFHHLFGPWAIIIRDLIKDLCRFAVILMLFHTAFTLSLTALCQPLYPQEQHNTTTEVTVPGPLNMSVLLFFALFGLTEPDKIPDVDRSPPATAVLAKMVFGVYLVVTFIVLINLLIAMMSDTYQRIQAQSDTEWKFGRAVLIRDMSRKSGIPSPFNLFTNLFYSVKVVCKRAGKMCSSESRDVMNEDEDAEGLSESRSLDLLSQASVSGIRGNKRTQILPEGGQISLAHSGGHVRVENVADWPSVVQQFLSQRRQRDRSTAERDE
# [7] = molecular target: T5, RNA-binding protein pos-1 (Caenorhabditis elegans, UniProt G5EF15); assay: inhibitors of POS-1/mex-3 RNA binding, dose response, biochemical, fluorescence polarization (AID 1964);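 further: purified POS-1 fused to maltose binding protein made in E. coli; potency of compounds blocking POS-1 binding to fluorescent RNA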
# T5 sequence (G5EF15 whole entry): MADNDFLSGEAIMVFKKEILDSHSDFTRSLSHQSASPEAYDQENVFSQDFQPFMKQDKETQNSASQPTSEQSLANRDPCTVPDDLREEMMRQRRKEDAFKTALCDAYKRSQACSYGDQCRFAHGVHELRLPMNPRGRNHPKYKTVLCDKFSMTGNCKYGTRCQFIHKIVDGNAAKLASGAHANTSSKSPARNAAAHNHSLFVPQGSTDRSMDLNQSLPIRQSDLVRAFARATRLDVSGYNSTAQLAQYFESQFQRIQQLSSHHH
# [8] = molecular target: T6, Kappa-type opioid receptor (Homo sapiens, UniProt P41145); type: functional
# T6 sequence (P41145 whole entry): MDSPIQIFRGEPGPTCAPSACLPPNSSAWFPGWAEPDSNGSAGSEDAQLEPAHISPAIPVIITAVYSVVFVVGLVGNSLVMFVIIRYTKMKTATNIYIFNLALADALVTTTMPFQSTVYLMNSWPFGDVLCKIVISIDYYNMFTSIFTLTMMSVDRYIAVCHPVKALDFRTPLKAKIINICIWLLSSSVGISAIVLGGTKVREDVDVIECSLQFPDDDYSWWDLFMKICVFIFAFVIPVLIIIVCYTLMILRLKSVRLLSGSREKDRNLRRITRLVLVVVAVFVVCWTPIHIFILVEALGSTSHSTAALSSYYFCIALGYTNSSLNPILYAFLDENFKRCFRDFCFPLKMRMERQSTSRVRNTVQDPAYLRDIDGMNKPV
# Mu-type opioid receptor = Mu-type opioid receptor (Homo sapiens, UniProt P35372); assay: HTS Image-Based Screen for Agonists of the MOR Receptor. [Related pubchem assays (depositor defined):AID1777, AID1785, AID1786, AID2133]; type: functional;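 further: imaging of beta-arrestin GFP recruitment into spots after receptor activation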
# Sequence of Mu-type opioid receptor (P35372 whole entry): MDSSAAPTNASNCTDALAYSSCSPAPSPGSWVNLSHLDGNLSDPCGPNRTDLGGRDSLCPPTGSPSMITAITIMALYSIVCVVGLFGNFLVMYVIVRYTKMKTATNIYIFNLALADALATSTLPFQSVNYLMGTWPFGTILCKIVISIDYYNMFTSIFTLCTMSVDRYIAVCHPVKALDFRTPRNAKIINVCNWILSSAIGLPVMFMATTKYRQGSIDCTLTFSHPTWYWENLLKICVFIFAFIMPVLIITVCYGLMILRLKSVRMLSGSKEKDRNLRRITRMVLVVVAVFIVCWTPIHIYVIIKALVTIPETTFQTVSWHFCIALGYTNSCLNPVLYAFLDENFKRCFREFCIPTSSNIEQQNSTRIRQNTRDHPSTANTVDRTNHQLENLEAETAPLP
# Beta-galactosidase = Beta-galactosidase (Escherichia coli, UniProt Q8VNN2); type: functional
# Sequence of Beta-galactosidase (Q8VNN2 whole entry): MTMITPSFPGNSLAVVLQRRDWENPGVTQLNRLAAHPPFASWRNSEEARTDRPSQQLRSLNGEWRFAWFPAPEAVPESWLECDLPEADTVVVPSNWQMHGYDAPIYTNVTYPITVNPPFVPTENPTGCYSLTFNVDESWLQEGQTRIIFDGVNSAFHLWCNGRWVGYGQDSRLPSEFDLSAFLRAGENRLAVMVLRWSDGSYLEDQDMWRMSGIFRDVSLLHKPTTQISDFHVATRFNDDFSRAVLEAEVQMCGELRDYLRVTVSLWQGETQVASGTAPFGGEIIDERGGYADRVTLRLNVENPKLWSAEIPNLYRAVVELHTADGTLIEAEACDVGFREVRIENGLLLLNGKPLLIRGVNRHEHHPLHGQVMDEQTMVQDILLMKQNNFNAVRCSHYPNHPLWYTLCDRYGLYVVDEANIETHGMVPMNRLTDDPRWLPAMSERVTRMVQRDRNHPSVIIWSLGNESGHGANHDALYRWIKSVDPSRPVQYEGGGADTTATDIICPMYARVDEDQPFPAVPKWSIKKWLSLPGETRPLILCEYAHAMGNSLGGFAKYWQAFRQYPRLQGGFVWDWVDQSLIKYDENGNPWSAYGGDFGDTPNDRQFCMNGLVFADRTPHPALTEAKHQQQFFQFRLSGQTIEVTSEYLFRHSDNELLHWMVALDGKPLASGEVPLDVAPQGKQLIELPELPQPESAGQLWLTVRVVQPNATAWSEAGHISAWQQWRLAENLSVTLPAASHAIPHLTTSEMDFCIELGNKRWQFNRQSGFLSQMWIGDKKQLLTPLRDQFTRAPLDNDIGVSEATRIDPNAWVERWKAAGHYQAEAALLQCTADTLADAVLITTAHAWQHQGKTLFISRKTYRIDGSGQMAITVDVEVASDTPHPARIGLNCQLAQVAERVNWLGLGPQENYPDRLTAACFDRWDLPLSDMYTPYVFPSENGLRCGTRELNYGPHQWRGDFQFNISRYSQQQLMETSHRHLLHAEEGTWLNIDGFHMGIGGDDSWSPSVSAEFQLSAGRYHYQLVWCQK
# [9] = molecular target: T6, Kappa-type opioid receptor; type: functional; remark: listed apart in the source
# Cytochrome P450 2D6 = Cytochrome P450 2D6 (Homo sapiens, UniProt P10635);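 further: CYP2D6 member of a cytochrome P450 panel assay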
# Sequence of Cytochrome P450 2D6 (P10635 whole entry): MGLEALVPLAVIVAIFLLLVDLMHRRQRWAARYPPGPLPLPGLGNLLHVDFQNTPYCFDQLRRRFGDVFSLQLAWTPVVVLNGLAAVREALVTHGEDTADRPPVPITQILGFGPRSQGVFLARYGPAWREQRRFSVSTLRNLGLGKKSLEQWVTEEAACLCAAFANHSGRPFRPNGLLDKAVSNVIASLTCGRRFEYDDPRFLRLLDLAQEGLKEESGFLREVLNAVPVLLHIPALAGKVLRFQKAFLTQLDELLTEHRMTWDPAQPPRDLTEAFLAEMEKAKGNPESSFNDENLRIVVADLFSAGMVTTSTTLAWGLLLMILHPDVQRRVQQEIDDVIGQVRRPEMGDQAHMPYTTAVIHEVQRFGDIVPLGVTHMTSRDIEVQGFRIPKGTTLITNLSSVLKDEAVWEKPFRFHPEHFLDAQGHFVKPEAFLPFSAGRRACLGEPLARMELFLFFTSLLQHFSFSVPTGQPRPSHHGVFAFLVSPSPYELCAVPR
# [10] = molecular target: T7, Delta-type opioid receptor (Homo sapiens, UniProt P41143); assay: HTS Image-Based Screen for Agonists of the DOR Receptor. [Related pubchem assays (depositor defined):AID1777, AID1786, AID2133]; type: functional
# T7 sequence (P41143 whole entry): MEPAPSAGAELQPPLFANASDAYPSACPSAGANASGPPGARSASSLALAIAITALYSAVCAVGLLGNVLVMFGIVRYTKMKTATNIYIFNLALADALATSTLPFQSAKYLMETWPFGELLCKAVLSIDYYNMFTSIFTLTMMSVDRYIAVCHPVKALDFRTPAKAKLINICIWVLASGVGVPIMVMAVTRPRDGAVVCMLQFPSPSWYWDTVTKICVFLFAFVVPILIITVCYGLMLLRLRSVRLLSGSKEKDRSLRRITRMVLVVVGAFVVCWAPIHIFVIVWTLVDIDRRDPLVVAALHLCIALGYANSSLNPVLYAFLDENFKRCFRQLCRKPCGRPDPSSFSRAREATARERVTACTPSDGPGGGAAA
# [11] = molecular target: T7, Delta-type opioid receptor; assay: HTS Image-Based Screen for Antagonists of the DOR Receptor. [Related pubchem assays (depositor defined):AID1777, AID1785, AID1786, AID2133]; type: functional
structure (smiles),measurement,setting,value
O=C(c1ccc(O)cc1)c1ccc(C(=O)O)c(C(=O)O)c1,EC50,[1],> 195 µM (not active)
same,IC50,[2],> 100 µM (inactive)
same,IC50,[3],> 100 µM (not active)
COc1cccc(/C=C2\SC(=S)N(CCC(=O)N3CCCCC3)C2=O)c1,CC50,[4],18.6 µM (active)
same,IC50,cells,17.2 µM (active)
same,CC50,[5],8.75 µM (active)
CC(C)/C=C1\CC/C(=C\c2ccc(N(C)C)cc2)C1=O,EC50,Mucolipin-3,1.9 µM (active)
same,EC50,[6],> 300 µM (inconclusive)
same,EC50,Ion channel NompC,0.507 µM (active)
same,EC50,[7],> 300 µM (not active)
COc1ccc(-c2csc(N3C(=N)SCC3=O)n2)cc1,IC50,[8],> 32 µM
same,EC50,Mu-type opioid receptor,> 32 µM (inactive)
same,EC50,Beta-galactosidase,> 31.5 µM (inactive)
same,IC50,[9],12.8 µM (active)
same,AC50,Cytochrome P450 2D6,11.2 µM (inconclusive)
same,EC50,[10],> 32 µM (inactive)
same,IC50,[11],> 32 µM (inactive)
